Assay results from patent US6107549A, “Genetically engineered plant resistance to thiazopyr and other pyridine herbicides” (Monsanto Company, priority 1999, dated 2000).

Key:
rabbit liver esterase = assay: Pyridine-esterase activity assay with rabbit liver esterase; assay type: biochemical; conditions: commercially available rabbit liver esterase
Method: Esterase activity assays. Esterase activity was measured in vitro by conversion of either [^14 C]thiazopyr or [^14 C]MON 14300 to their corresponding monoacid. Pyridine-esterase activity was assayed during protein purification and from tissue extracts of transgenic plants. The homogenizing buffer for plant tissues consisted of 100 mM Tris pH 8.0, 1 mM EDTA, 1 mM DTT, and 10% glycerol in water. Plant tissues (1 g/ml buffer) including leaves, seeds, flowers, seedlings, etc. were homogenized in conical centrifuge tubes using a spinning pestle at 4° C. […] Following centrifugation (12,000× g for 3 min), the supernatant was analyzed by HPLC/RAD (radioactivity detection) to resolve the monoacid from the parent herbicide and other metabolites. […]
Purification of pyridine-esterases from porcine and rabbit liver. […] Effluent was monitored by UV (280 nm) and fractions were collected at 1 ml intervals. […] Protein purity was determined by SDS-PAGE on 10 to 15% gradient gels (Pharmacia Biotech) with visualization of proteins by silver staining.
Following anion exchange chromatography, fractions with the highest purity and activity were pooled. […] Effluent fractions from IEF chromatography were analyzed for protein and pyridine-esterase activity. The protein purity of the fractions was determined by SDS-PAGE and IEF-PAGE.

RLE3 = target: T1, RLE3 (Oryctolagus cuniculus, UniProt P12337, A196R/H30K); assay: Esterase activity of RLE3 cDNA expressed in insect cells; assay type: biochemical, rabbit; conditions: culture media from SF9 cells containing RLE3 cDNA
T1 construct: 19-residue synthetic ER signal peptide (design based on the homologous rat esterase, Robbi et al. 1990; Ala added after Met) (N); made in house; host or cells: Spodoptera frugiperda SF9 cells, baculovirus
T1 sequence (P12337 with tags, fused parts or gaps H30K/A196R): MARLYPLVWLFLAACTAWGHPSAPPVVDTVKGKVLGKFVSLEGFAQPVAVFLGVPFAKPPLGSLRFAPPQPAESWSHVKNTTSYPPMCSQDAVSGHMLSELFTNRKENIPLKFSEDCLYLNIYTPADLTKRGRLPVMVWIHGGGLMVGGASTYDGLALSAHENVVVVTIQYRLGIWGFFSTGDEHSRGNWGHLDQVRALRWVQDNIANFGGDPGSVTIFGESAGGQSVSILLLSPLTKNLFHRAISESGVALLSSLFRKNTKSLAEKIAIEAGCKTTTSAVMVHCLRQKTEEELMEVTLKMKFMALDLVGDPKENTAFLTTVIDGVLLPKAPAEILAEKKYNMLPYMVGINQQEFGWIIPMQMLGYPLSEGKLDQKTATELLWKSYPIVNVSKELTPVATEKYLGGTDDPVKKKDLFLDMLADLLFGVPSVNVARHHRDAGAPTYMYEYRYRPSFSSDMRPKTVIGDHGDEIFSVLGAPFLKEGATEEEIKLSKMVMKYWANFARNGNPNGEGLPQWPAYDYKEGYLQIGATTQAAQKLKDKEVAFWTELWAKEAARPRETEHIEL
Method: Esterase activity assays. Esterase activity was measured in vitro by conversion of either [^14 C]thiazopyr or [^14 C]MON 14300 to their corresponding monoacid. Pyridine-esterase activity was assayed during protein purification and from tissue extracts of transgenic plants. The homogenizing buffer for plant tissues consisted of 100 mM Tris pH 8.0, 1 mM EDTA, 1 mM DTT, and 10% glycerol in water. Plant tissues (1 g/ml buffer) including leaves, seeds, flowers, seedlings, etc. were homogenized in conical centrifuge tubes using a spinning pestle at 4° C. Following centrifugation (12,000× g), the supernatant (250 μl) was assayed immediately for esterase activity by incubation with [^14 C]thiazopyr or [^14 C]MON 14300 (4 μg) in 0.1 M Tris pH 8.0 buffer (50 μl) at 37° C. The reaction was sampled (100 μL) at various times (0.5 to 100 hr) to generate a kinetic profile of monoacid formation. The reaction was stopped by addition of 1% trifluoroacetic acid in acetonitrile (v/v, 150 μl). Following centrifugation (12,000× g for 3 min), the supernatant was analyzed by HPLC/RAD (radioactivity detection) to resolve the monoacid from the parent herbicide and other metabolites. Control reactions in the absence of the esterase recovered un-reacted thiazopyr or MON 14300 for the duration of experiments. Esterase activity was also assayed during protein purification following a similar procedure except a single time-point (1-2 hrs) of incubation was selected within the linear range of reaction. In vitro assays also employed three commonly used calorimetric (p-nitrophenyl butyrate) or fluorescent (4-methyl umbelliferyl butyrate and 5-bromo-4-chloro-3-indolylacetate) substrates. These substrates are useful in rapidly and qualitatively detecting general esterase activity.
Expression of RLE1 and RLE3 cDNAs in insect cells. Mature rabbit liver esterases are glycoproteins which reside in the lumen of the endoplasmic reticulum (ER) (Korza et al., 1988). […]

tobacco seedlings = assay: Root elongation assay for thiazopyr resistance; assay type: in vivo
Method: Root elongation assay for thiazopyr resistance. Transgenic tobacco R1 seeds (line #37432) were sterilized with a 0.25% sodium hypochlorite solution and repeatedly washed with water. Just prior to solidification of agar (~45° C.), stock solutions of thiazopyr in DMSO (1% final concentration) was added; the final concentrations of thiazopyr were 0, 0.05, 0.1, and 0.5 μM. The liquid agar was vortexed and dispensed (3 ml) into glass test tubes. Seeds (~12 per test tube) were placed on the surface of solidified agar and stored in a growth chamber at 25° C. with a 12 hr day and night cycle. Root development and length were monitored visually with time. Control experiments employed untransformed tobacco seeds from the Samson variety.

Compound | esterase activity against substrate (rabbit liver esterase) | esterase activity against substrate (RLE3) | inhibition at 0.1 µM (tobacco seedlings; Nicotiana tabacum, control (Samson) seedlings, 0.1 μM thiazopyr) [%] | root length (tobacco seedlings; transgenic line #37432, 0.1 μM thiazopyr) | root inhibition (tobacco seedlings; transgenic line #37432, 0.5 μM thiazopyr)
COC(=O)c1c(C(F)F)nc(C(F)(F)F)c(C(=O)n2cccn2)c1CC(C)C [MON 14300] | active | demonstrated esterase activity |  |  | 
COC(=O)c1c(C(F)F)nc(C(F)(F)F)c(C2=NCCS2)c1CC(C)C [thiazopyr] | active | demonstrated esterase activity | ~50 | normal root length | Root inhibition was observed
